Reference: patent publication US20240260575A1, “AGRICULTURAL AND HORTICULTURAL FUNGICIDAL COMPOSITION” (Nippon Soda Co., Ltd., priority 2021, published 2024)

Legend:
[1] = test system: cucumber powdery mildew pathogen (Sphaerotheca fuliginea); test: Cucumber powdery mildew control test; format: in vivo; parameters: scale not given here; conditions: for control value: sprayed onto cucumber seedlings
Text: (Test Example) Cucumber Powdery Mildew Control Test 1) Preparation of Drug Solution for Test […] The other components (II) were each formulated into an aqueous solution or suspension having a predetermined concentration. 2) Test A mixed solution of a component (I) and a component (II) at a predetermined concentration was sprayed onto cucumber seedlings (variety: “Shimo-shirazu, creeping type”, cotyledon stage). After natural drying at room temperature, conidiospores of a cucumber powdery mildew pathogen (Sphaerotheca fuliginea) were inoculated by blushing off, and the seedlings were kept in a thermostatic room at 20° C. using a 12 hour light/dark cycle for 7 to 10 days. The states of lesion development on leaves were examined by comparing with that for the untreated case, and the control values were determined. The test was duplicately carried out. The results are shown in Tables 8 to 12 together with expected values calculated as follows. Expected values were calculated by using Colby's equation: […] Here, E denotes an expected value of a control value, M denotes a control value in using a component (I) alone, and N denotes a control value in using a component (II) alone. If the actually measured control value of a composition of a component (I) and a component (II) is higher than the expected value, E, the composition of a component (I) and a component (II) is said to have exerted synergistic effect.

[2] = test system: gray mold pathogen (Botrytis cinerea); test: Gray mold antimicrobial test (growth inhibition rate); format: cell-based; parameters: growth inhibition rate, component (II) alone: concentration or dose not given beside the values
Experimental: (Test Example) Gray Mold Antimicrobial Test (Growth Inhibition Rate)
Conidiospores of a gray mold pathogen (Botrytis cinerea) were added to and dispersed in a yeast extract sucrose medium, and a component (I) and a component (II) dissolved in dimethyl sulfoxide at predetermined concentrations were further added and mixed thereto, and the resulting solution was dispensed onto a 96-well microplate and cultivated in the dark at 20° C. for 3 to 5 days. After the cultivation, the turbidity at a wavelength of 405 nm was measured by a microplate reader and compared with that in the untreated case to determine the growth inhibition rate (%) for the gray mold pathogen. The test was duplicately carried out. The results are shown in Tables 3 to 7 together with expected values calculated as follows.
Expected values were calculated by using Colby's equation: E=M+N−MN/100. Here, E denotes an expected value (%) of a growth inhibition rate, M denotes a growth inhibition rate (%) in using a component (I) alone, and N denotes a growth inhibition rate (%) in using a component (II) alone.
If the actually measured growth inhibition rate (%) of a composition of a component (I) and a component (II) is higher than the expected value, E, the composition of a component (I) and a component (II) is said to have exerted synergistic effect.

[3] = Table 8, ppm or dilution rate: Thiophanate-methyl 1.6, Triflumizole 25, Cyflufenamid 1.6, Iminoctadine acetate 0.25, Iminoctadine albesilate 1, Picarbutrazox 2000, Ipflufenoquin 1, Bacillus subtilis ×250, Pseudomonas rhodesiae ×2000, Sodium hydrogen carbonate 250, Potassium bicarbonate 250, Orange oil 4000, Linalool 4000, Thymol 100, Neem oil 2000, Prothioconazole 1.6, Mancozeb 63, Mineral oil 500
[4] = Table 9, ppm or dilution rate: Thiophanate-methyl 1.6, Triflumizole 25, Cyflufenamid 1.6, Iminoctadine acetate 0.25, Iminoctadine albesilate 1, Picarbutrazox 2000, Ipflufenoquin 1, Bacillus subtilis ×250, Pseudomonas rhodesiae ×2000, Sodium hydrogen carbonate 250, Potassium bicarbonate 250, Orange oil 1000, Linalool 4000, Thymol 100, Neem oil 2000, Prothioconazole 1.6, Mancozeb 63, Mineral oil 500
[5] = Table 10, ppm or dilution rate: Thiophanate-methyl 1.6, Triflumizole 25, Cyflufenamid 1.6, Iminoctadine acetate 0.25, Iminoctadine albesilate 1, Picarbutrazox 2000, Ipflufenoquin 1, Bacillus subtilis ×1000, Pseudomonas rhodesiae ×2000, Sodium hydrogen carbonate 250, Potassium bicarbonate 250, Orange oil 1000, Linalool 4000, Thymol 100, Neem oil 2000, Prothioconazole 1.6, Mancozeb 63, Mineral oil 5
[6] = Table 11, ppm or dilution rate: Thiophanate-methyl 1.6, Triflumizole 25, Cyflufenamid 1.6, Iminoctadine acetate 1, Iminoctadine albesilate 1, Picarbutrazox 2000, Ipflufenoquin 1, Bacillus subtilis ×1000, Pseudomonas rhodesiae ×2000, Sodium hydrogen carbonate 250, Potassium bicarbonate 250, Orange oil 1000, Linalool 4000, Thymol 100, Neem oil 2000, Prothioconazole 1.6, Mancozeb 63, Mineral oil 500
[7] = Table 12, ppm or dilution rate: Thiophanate-methyl 1.6, Triflumizole 25, Cyflufenamid 1.6, Iminoctadine acetate 0.25, Iminoctadine albesilate 1, Picarbutrazox 2000, Ipflufenoquin 1, Bacillus subtilis ×1000, Pseudomonas rhodesiae ×2000, Sodium hydrogen carbonate 1000, Potassium bicarbonate 250, Orange oil 1000, Linalool 4000, Thymol 400, Neem oil 2000, Prothioconazole 1.6, Mancozeb 63, Mineral oil
[8] = Table 3, ppm: Ipflufenoquin 10, Cyflufenamid 10, Thiophamate-methyl 0.4, Iminoctadine acetate 0.08, Iminoctadine albesilate 0.08, Triflumizole 0.0032, Picarbutrazox 0.08, Prothioconazole 0.0032, Mefentrifluconazole 0.00064, Cymoxanil 10, Fludioxonil 0.016, Metyltetraprole 0.4, Florylpicoxamid 0.08, Fluxapyroxad 0.08, Fluopyram 0.4, Potassium phosphite 10, Fipronil 2, Chlorantraniliprole 0.016, Aba
[9] = Table 4, ppm: Ipflufenoquin 10, Cyflufenamid 2, Thiophamate-methyl 0.4, Iminoctadine acetate 0.08, Iminoctadine albesilate 0.4, Picarbutrazox 10, Prothioconazole 0.0032, Mefentrifluconazole 0.0006, Cymoxanil 10, Fludioxonil 0.016, Metyltetraprole 10, Fluxapyroxad 0.016, Fluopyram 0.4, Potassium phosphite 10, Fipronil 2, Chlorantraniliprole 0.016, Abamectin 0.016, Sulfoxaflor 10, Tebufenozide 0.016
[10] = Table 7, ppm: Ipflufenoquin 0.08, Cyflufenamid 0.08, Thiophamate-methyl 2, Iminoctadine acetate 0.0001, Iminoctadine albesilate 0.4, Triflumizole 0.4, Prothioconazole 0.0032, Mefentrifluconazole 0.08, Cymoxanil 0.08, Captan 0.08, Fludioxonil 0.08, Metyltetraprole 0.0032, Florylpicoxamid 0.0006, Fluxapyroxad 0.016, Fluopyram 0.0032, Potassium phosphite 0.016, Fipronil 2, Chlorantraniliprole 0.016
[11] = Table 5, ppm: Ipflufenoquin 10, Cyflufenamid 10, Thiophamate-methyl 0.4, Iminoctadine albesilate 0.4, Picarbutrazox 0.0032, Mefentrifluconazole 0.0006, Cymoxanil 10, Captan 0.0032, Fludioxonil 0.016, Metyltetraprole 10, Florylpicoxamid 0.0001, Fluxapyroxad 0.016, Fluopyram 0.0032, Potassium phosphite 0.08, Fipronil 2, Chlorantraniliprole 0.016, Abamectin 0.4, Sulfoxaflor 0.4, Tebufenozide 10

## COc1ccccc1C(O)Cn1cc(/C(C)=N/OC(C)C)c(=O)n(C[C@H](C)NC(=O)C(C)C)c1=O (stereo partly drawn) [Compound 4]
[1]; Table 11, Examination 1, Compound 4 0.4 ppm alone or mixed with component (II)
  control value: 78
[1]; Table 11, Examination 2, Compound 4 0.4 ppm alone or mixed with component (II)
  control value: 64
[1]; Table 11, Examination 3, Compound 4 0.4 ppm alone or mixed with component (II)
  control value: 63
[1]; Table 11, Examination 4, Compound 4 0.4 ppm alone or mixed with component (II)
  control value: 59
[1]; Table 11, Examination 5, Compound 4 0.4 ppm alone or mixed with component (II)
  control value: 59
[1]; Table 11, Examination 6, Compound 4 0.4 ppm alone or mixed with component (II)
  control value: 67
[2]; Table 6, Examination 1, Compound 4 (0.25 or 0.063 ppm) alone or mixed with component (II)
  growth inhibition rate: 56%
[2]; Table 6, Examination 2, Compound 4 (0.25 or 0.063 ppm) alone or mixed with component (II)
  growth inhibition rate: 31%
[2]; Table 6, Examination 3, Compound 4 (0.25 or 0.063 ppm) alone or mixed with component (II)
  growth inhibition rate: 6%
[2]; Table 6, Examination 4, Compound 4 (0.25 or 0.063 ppm) alone or mixed with component (II)
  growth inhibition rate: 4%
[2]; Table 6, Examination 5, Compound 4 (0.25 or 0.063 ppm) alone or mixed with component (II)
  growth inhibition rate: 4%
[2]; Table 6, Examination 6, Compound 4 (0.25 or 0.063 ppm) alone or mixed with component (II)
  growth inhibition rate: 3%

## CC(=O)O.CC(=O)O.CC(=O)O.NC(N)=NCCCCCCCCNCCCCCCCCN=C(N)N [Iminoctadine acetate]
[1]; [3]
  control value, component (II) alone: 0
[1]; [4]
  control value, component (II) alone: 50
[1]; [5]
  control value, component (II) alone: 0
[1]; [6]
  control value, component (II) alone: 50
[1]; [7]
  control value, component (II) alone: 17
[2]; [8]
  growth inhibition rate, component (II) alone: 25%
[2]; [9]
  growth inhibition rate, component (II) alone: 56%
[2]; [10]
  growth inhibition rate, component (II) alone: 0%

## Cn1nnnc1/C(=N\OCc1cccc(NC(=O)OC(C)(C)C)n1)c1ccccc1 [Picarbutrazox]
[1]; [3]
  control value, component (II) alone: 50
[1]; [4]
  control value, component (II) alone: 50
[1]; [5]
  control value, component (II) alone: 50
[1]; [6]
  control value, component (II) alone: 50
[1]; [7]
  control value, component (II) alone: 50
[2]; [8]
  growth inhibition rate, component (II) alone: 0%
[2]; [9]
  growth inhibition rate, component (II) alone: 12%
[2]; [11]
  growth inhibition rate, component (II) alone: 1%
[2]; Table 6, ppm: Ipflufenoquin 10, Cyflufenamid 0.08, Thiophamate-methyl 2, Triflumizole 0.08, Picarbutrazox 0.0016, Prothioconazole 0.0006, Mefentrifluconazole 0.08, Cymoxanil 0.08, Captan 0.08, Fludioxonil 0.016, Metyltetraprole 10, Florylpicoxamid 0.0006, Fluxapyroxad 0.0032, Fluopyram 0.016, Potassium phosphite 0.016, Fipronil 10, Chlorantraniliprole 0.08, Abamectin 2, Sulfoxaflor 0.08, Tebufenoz
  growth inhibition rate, component (II) alone: 12%

## COc1ccc(F)cc1C(Cn1cc(/C(C)=N/OC(C)C)c(=O)n(C[C@H](C)NC(=O)C(C)C)c1=O)OCCC#N (stereo partly drawn) [Compound 5]
[1]; Table 12, Examination 1, Compound 5 0.4 ppm alone or mixed with component (II)
  control value: 83
[1]; Table 12, Examination 2, Compound 5 0.4 ppm alone or mixed with component (II)
  control value: 60
[1]; Table 12, Examination 3, Compound 5 0.4 ppm alone or mixed with component (II)
  control value: 56
[1]; Table 12, Examination 4, Compound 5 0.4 ppm alone or mixed with component (II)
  control value: 50
[1]; Table 12, Examination 5, Compound 5 0.4 ppm alone or mixed with component (II)
  control value: 67
[1]; Table 12, Examination 6, Compound 5 0.4 ppm alone or mixed with component (II)
  control value: 50
[1]; Table 12, Examination 7, Compound 5 0.4 ppm alone or mixed with component (II)
  control value: 67
[2]; Table 7, Examination 1, Compound 5 (0.25 or 0.063 ppm, head span unclear) alone or mixed with component (II)
  growth inhibition rate: 61%
[2]; Table 7, Examination 2, Compound 5 (0.25 or 0.063 ppm, head span unclear) alone or mixed with component (II)
  growth inhibition rate: 43%
[2]; Table 7, Examination 3, Compound 5 (0.25 or 0.063 ppm, head span unclear) alone or mixed with component (II)
  growth inhibition rate: 13%
[2]; Table 7, Examination 4, Compound 5 (0.25 or 0.063 ppm, head span unclear) alone or mixed with component (II)
  growth inhibition rate: 3%
[2]; Table 7, Examination 5, Compound 5 (0.25 or 0.063 ppm, head span unclear) alone or mixed with component (II)
  growth inhibition rate: 3%
[2]; Table 7, Examination 6, Compound 5 (0.25 or 0.063 ppm, head span unclear) alone or mixed with component (II)
  growth inhibition rate: 2%

## CCCCCCCCCCCCc1ccc(S(=O)(=O)O)cc1.CCCCCCCCCCCCc1ccc(S(=O)(=O)O)cc1.CCCCCCCCCCCCc1ccc(S(=O)(=O)O)cc1.NC(N)=NCCCCCCCCNCCCCCCCCN=C(N)N [Iminoctadine albesilate]
[1]; [3]
  control value, component (II) alone: 50
[1]; [4]
  control value, component (II) alone: 67
[1]; [5]
  control value, component (II) alone: 50
[1]; [6]
  control value, component (II) alone: 67
[1]; [7]
  control value, component (II) alone: 17
[2]; [8]
  growth inhibition rate, component (II) alone: 6%
[2]; [9]
  growth inhibition rate, component (II) alone: 81%
[2]; [11]
  growth inhibition rate, component (II) alone: 81%
[2]; [10]
  growth inhibition rate, component (II) alone: 81%
